Measurements: patent US20230086985A1, “POLYMERIC COMPOUNDS INCLUDING AN ACCEPTOR DYE AND DONOR LUMINOPHORE” (North Carolina State University, priority 2019, published 2023)
Read-outs that look alike come from different tables or passages of the source.

Tests used:
[1] = Absorption and emission spectra of dye-loaded copolymers F1-F3 and dyes D1-D3; format: physicochemical
Description: Measurements of Absorption and Emission Spectra. The target dye-loaded copolymers F1-F3 were then subject to investigations of their spectroscopic properties in both organic solvents and aqueous solution. […] Attaching to the 120-kDa amphiphilic copolymer drastically enhances the water solubility of BODIPY D1 and chlorin D2 without strong perturbation on the spectroscopic properties. Emission band for F1 and F2 in water remains the same as the ones measured in organic solutions, showing minimal dye-dye interaction is involved in aqueous solution of F1 and F2 at μM concentration. […] This negative result may be because of the inappropriate size of the copolymer backbone. Polymer larger in size may be required to encapsulate large hydrophobic chromophores like the phthalocyanine D3.
General Methods. All chemicals obtained commercially were used as received unless otherwise noted. Reagent-grade solvents (CH2Cl2, THF, methanol) and HPLC-grade water were used as received. NMR data was measured in a solution of CDCl3 unless otherwise noted. Noncommercial compounds 1, 2, and 4 were prepared following literature procedures. Analytical SEC experiments were performed with PLgel 10000 Å SEC column, eluted with ACS grade THF (stabilized with 400 ppm of BHT) at 35° C. with a flow rate at 1 mL/min. Samples were detected with Agilent 1260 infinity refractive index detector. Absorption spectra were measured on Agilent 8453 and Shimadzu UV1800 instruments using dilute (μmolar) solutions of the compound in UV transparent (e.g., quartz) cuvettes versus a solvent blank at room temperature.

[2] = Fluorescence quantum yield of F1-F3 and D1-D3; format: physicochemical
Description: Fluorescence Quantum Yields. […] […] These comparisons indicate the absence of dye-dye quenching resulting from the aggregation for F1 and F2 in μM aqueous solutions. […] Also, a smaller phthalocyanine skeleton (e.g. with methyl instead of heptyl as peripheral groups) may be encapsulated with the current length of copolymer successfully.

[3] = aqueous solution, Hg(II); cited from earlier work
[4] = aqueous solution, cited from earlier work
[5] = solvent toluene, room temperature
[6] = solvent CH2Cl2, room temperature

SMILES | FWHM [1, 6] | emission maximum wavelength (λem max) [1, 6] | λabs^max [1, 6] | Φf [2, 6] | further results
CCCCCCCc1cc2c(cc1CCCCCCC)-c1nc-2nc2[nH]c(nc3nc(nc4[nH]c(n1)c1cc(CCCCCCC)c(CCCCCCC)cc41)-c1cc(C#Cc4ccc(CC(=O)NN)cc4)ccc1-3)c1cc(CCCCCCC)c(CCCCCCC)cc21 [Compound D3, 2-[4-(N-Aminocarbamoyl)methylphenylethynyl]-9,10,16,17,23,24-hexaheptylphthalocyanine] |  |  |  |  | FWHM [1, 5]: 1113 cm⁻¹; emission maximum wavelength (λem max) [1, 5]: 707 nm; λabs^max [1, 5]: 702 nm; Φf [2, 5]: 0.68
Cc1cc(C)c(C2=C3C=CC=[N+]3[B-](F)(F)n3cc(C#CCCCCC(=O)NN)cc32)c(C)c1 [Compound D1, 2-[6-(N-Aminocarbamoyl)hex-1-yn-1-yl]-8-mesityl-4,4-difluoro-4-bora-3a,4a-diaza-s-indacene] | 1628 cm⁻¹ | 557 nm | 543 nm | 0.065 | 
Cc1cc(C)c(-c2c3nc(c(-c4ccc(C(=O)NN)cc4)c4ccc(cc5nc(cc6ccc2[nH]6)CC5(C)C)[nH]4)C=C3)c(C)c1 [Compound D2, 5-[4-(N-Aminocarbamoyl)phenyl]-10-Mesityl-18,18-dimethylchlorin] | 342 cm⁻¹ | 641 nm | 640 nm | 0.19 | 
CCN(CC)c1ccc2c(c1)Oc1cc(N(CC)CC)ccc1C21c2ccccc2C(=O)N1N [Rhodamine-B hydrazide] |  |  |  |  | change in absorption or fluorescence spectra [3]: significant change; change in absorption or fluorescence spectra ([4]; Cu(II)): significant change; Cu(II) concentration at which selective detection was highly sensitive and quantitative [4]: 10^−7 M
